Source: patent US20190307740A1, “COMPOSITIONS AND METHODS FOR TREATMENT RELATED TO FALL AND FALL FREQUENCY IN NEURODEGENERATIVE DISEASES” (Neurocea, LLC, priority 2016, published 2019)
Where “and” joins values, the source holds several entries; their conditions need not be identical. Equal entries are not always repeated.

System: subjects with idiopathic PD with LIDs
Experimental: At the time the study was performed (2009), there was no FDA accepted instrument for measuring treatment efficacy for LIDs. Therefore, several secondary objectives were utilized to assess efficacy including the Unified Dyskinesia Rating Scale (UDysRS).
A total of 65 male and female subjects with idiopathic PD with LIDs were randomized in the study. The study consisted of 4 phases (FIG. 6A): screening phase (up to 3 weeks), double-blind treatment phase (10 weeks), taper phase (2 weeks), and follow-up phase (2 weeks). The approximate duration of the study for each subject was 17 weeks. […] During the double-blind treatment phase, dosing was begun at Visit 0 at 1 mg every 6 hours (total daily dose [TDD]=4 mg/day) and escalated upwards at 2-week intervals as follows: 2 mg every 6 hours (TDD=8 mg/day) at Visit 1 (Week 2); 4 mg every 6 hours (TDD=16 mg/day) at Visit 2 (Week 4); 6 mg every 6 hours (TDD=24 mg/day) at Visit 3 (Week 6). Subjects were maintained on 24 mg/day for 4 weeks. The subsequent taper phase (2 weeks total), beginning at Visit 4 (Week 10), consisted of 9 days of drug taper and 5 days off drug prior to Visit 5 (final safety visit). […] Ondansetron was provided by the sponsor and dispensed with each dose escalation step with instructions to use it for nausea and vomiting only during the first 4 days following dose initiation or escalation. […] No other dose down-titration was allowed.
Efficacy was measured with the Unified Dyskinesia Rating Scale (UDysRS), a semi-quantitative assessment, FDA-validated instrument to assess […] dyskinesia in PD. […] Dosing was begun at 1 mg every 6 hours to a final dose of 24 mg per day. Patients who tolerated a total daily dose of at least 16 mg per day continued in the study.
Subjects were maintained on 24 mg/day for 4 weeks. The subsequent taper phase (2 weeks total), beginning at visit 4 (Week 10), consisted of 9 days of drug taper and 5 days off drug prior to Visit 5 (final safety visit). […] No other down-titration was allowed.
LIDs were assessed by the UDysRS, the main measure of LIDs (Table 12). […] The study was conducted in accordance with the Declaration of Helsinki and Good Clinical Practice Guidelines. All sites received approval from an institutional review board and written informed consent was obtained from each patient prior to participation.

CN1CCCC1c1cccnc1.O=C(O)C(O)C(O)C(=O)O (stereo not shown) [NP002, Nicotine Bitartrate]
Study discontinuation, primary reason adverse event, n (%) (35 randomized): 6 n (%) and 6 (17.1) n (%)
Constipation (N = 35): 5 (14.3) n (%)
Diarrhea (N = 35): 2 (5.7) n (%)
Dizziness (N = 35): 7 (20.0) n (%)
Fatigue (N = 35): 3 (8.6) n (%)
Headache (N = 35): 2 (5.7) n (%)
Insomnia (N = 35): 0 (0.0) n (%)
Nausea (N = 35): 13 (37.1) n (%)
Nightmare (N = 35): 2 (5.7) n (%)
Number (%) of subject with any AE (N = 35): 26 (74.3) n (%)
Pain (N = 35): 3 (8.6) n (%)
Pain in extremity (N = 35): 2 (5.7) n (%)
Tremor (N = 35): 2 (5.7) n (%)
Vomiting (N = 35): 4 (11.4) n (%)
Subjects who required dose reduction or discontinuation of study treatment, n (%) (because of adverse events, 35 randomized): 7 (20.0) n (%)
serum cotinine levels (compliance check): paralleled dosing of nicotine
most frequent adverse event (in vivo): nausea
number of adverse events reported (in vivo): 45
overall safety and tolerability (oral 4 times/day up to 24 mg/day, 10 weeks): safe and well tolerated, other than nausea
